In brackets after ≈: the same amount, converted by molar mass.
Tests used:
C. perfringens DSM 756 = experiment: microbe, parasite or virus in culture; assay type: cell-based; details: Clostridium perfringens, DSM756, 48 h, read-out: MIC regarding C. perfringens DSM 756
[1] = test system: Clostridium difficile A- 1179 NC 13366; experiment: Agar dilution MIC, anaerobic strains; assay type: cell-based; details: Clostridioides difficile, A1179NC13366, 48 h
[2] = test system: Bacteroides ovatus A-991 ATCC 8483; experiment: Agar dilution MIC, anaerobic strains; assay type: cell-based; details: ATCC8483, 48 h
[3] = test system: Bacteroides fragilis A-217 B 6306; experiment: Agar dilution MIC, anaerobic strains; assay type: cell-based; details: A217B6306, 48 h
[4] = test system: Bacteroides fragilis A-294 T 9174; experiment: Agar dilution MIC, anaerobic strains; assay type: cell-based; details: A294T9174, 48 h
[5] = test system: Bacteroides fragilis A-293 B 2518; experiment: Agar dilution MIC, anaerobic strains; assay type: cell-based; details: A293B2518, 48 h
[6] = test system: Bifidobacterium bifidum A-1258 DSM 20456; experiment: Agar dilution MIC, anaerobic strains; assay type: cell-based; details: DSM20456, 48 h
[7] = test system: Lactobacillus acidophilus A-1255 DSM 20079; experiment: Agar dilution MIC, anaerobic strains; assay type: cell-based
[8] = test system: C. difficile strain NC 13366; assay type: cell-based; details: 1 and 8 µg/ml; supernatants at day 5; high density stationary phase cultures
S. aureus A-798 (MRSA) = experiment: Broth microdilution MIC, aerobic Gram-positive bacteria; details: Staphylococcus aureus, 48 h
E. faecalis H 7094 = experiment: as above; details: Enterococcus faecalis, H7094, 48 h
E. faecalis H 7460 = experiment: as above; details: Enterococcus faecalis, H7460, 48 h
E. faecium ATCC 19434 = experiment: as above; details: Enterococcus faecium, ATCC19434, 48 h
E. faecium H 7969 = experiment: as above; details: Enterococcus faecium, H7969, 48 h
E. faecium H 7966 = experiment: as above; details: Enterococcus faecium, H7966, 48 h
E. faecium H 7965 = experiment: as above; details: Enterococcus faecium, H7965, 48 h
E. faecium H 7937 = experiment: as above; details: Enterococcus faecium, H7937, 48 h

O=C(O)c1cn(C2CC2)c2cc(N3CCC(O)(COc4ccc(N5C[C@H](CO)OC5=O)cc4F)CC3)c(F)cc2c1=O [Example 1, 1-cyclopropyl-6-fluoro-7-{4-[2-fluoro-4-((R)-5-hydroxymethyl-2-oxo-oxazolidin-3-yl)-phenoxymethyl]-4-hydroxy-piperidin-1-yl}-4-oxo-1,4-dihydro-quinoline-3-carboxylic acid]
MIC (C. perfringens DSM 756): ≤ 0.03 µg/mL | MIC [1]: ≤ 0.06 µg/mL | MIC [2]: 16 µg/mL (≈ 27.3 µM) | MIC [3]: 4 µg/mL (≈ 6.83 µM) | MIC [4]: 4 µg/mL (≈ 6.83 µM) | MIC [5]: 4 µg/mL (≈ 6.83 µM) | MIC [6]: 0.5 µg/mL (≈ 0.854 µM) | MIC ([7]; DSM20079, 48 h, Lactobacillus acidophilus A-1255, DSM 20079): 0.5 µg/mL (≈ 0.854 µM) | less activity against Lactobacillus acidophilus A-1255 compared to the compound of Example 5 of WO 2005/058888 ([7]; versus R1): 8 times | de novo toxin A production [8]: inhibited de novo toxin A production | MIC (S. aureus A-798 (MRSA)): 0.25 µg/mL (≈ 0.427 µM) | MIC (E. faecalis H 7094): 0.5 µg/mL (≈ 0.854 µM) | MIC (E. faecalis H 7460): 1 µg/mL (≈ 1.71 µM) | MIC (E. faecium ATCC 19434): 0.25 µg/mL (≈ 0.427 µM) | MIC (E. faecium H 7969): 1 µg/mL (≈ 1.71 µM) | MIC (E. faecium H 7966): 0.5 µg/mL (≈ 0.854 µM) | MIC (E. faecium H 7965): 0.5 µg/mL (≈ 0.854 µM) | MIC (E. faecium H 7937): 0.25 µg/mL (≈ 0.427 µM)
